Results on four compounds are retold here after patent US20190252042A1, “INDENTIFICATION AND ANTIBIOTIC CHARACTERIZATION OF PATHOGENS IN METAGENOMIC SAMPLE” (BIOMÉRIEUX, priority 2016, published 2019).

One assay deals with E aerogenes. The assay is described as follows: Antibiotic Susceptibility Testing (AST) profile by classical microbiology, BAL sample 1. In kind it is cell-based. Particulars: positive BAL metagenomic sample 1, pathogen E aerogenes. An excerpt: Three validation studies of the metagenomic analysis according to the invention have been done. The first validation study relies on in silico simulated metagenomes (validation study 1), the second validation study is a set of 3 positive miniBAL metagenomic samples for which only the culture identification is available (validation study 2), and the third validation study is a set 2 positive BAL metagenomic samples with identification and AST profiles available (validation study 3). For all the evaluation, Kraken is used for taxonomic binning and ARD binning (steps 22, 24) and IDBA-UD is used for assembly (step 28).
In Table 3, one notes that both pipelines give very similar results and results coherent with classical microbiology, at least for identification results. Both pipelines give similar results, probably because the ARD retrieved are present in the reference sequences of the 2 pathogens, ie. AmpC must be present in the reference sequences of E. aerogenes, and ANT(9)-1A in the reference sequences of S aureus.

The next assay concerns S aureus. The assay is described as follows: Antibiotic Susceptibility Testing (AST) profile by classical microbiology, BAL sample 2. Type of assay: cell-based. The note with it: positive BAL metagenomic sample 2, pathogen S aureus.

Regarding `CC1(C)S[C@@H]2[C@H](NC(=O)[C@H](N)c3ccc(O)cc3)C(=O)N2[C@H]1C(=O)O` [amoxiciline], in the assay on E aerogenes, the AST profile result is reported as “resistance: amoxiciline, clavunalate”.

In the case of `CO/N=C(\C(=O)N[C@@H]1C(=O)N2C(C(=O)O)=C(COC(N)=O)CS[C@H]12)c1ccco1` [cefuroxime], the AST profile result in the assay with E aerogenes was “intermediate resistance: cefuroxime”.

For the compound `O=C(O)[C@H]1/C(=C/CO)O[C@@H]2CC(=O)N21` [clavunalate], the AST profile result in the assay with E aerogenes is listed as “resistance: amoxiciline, clavunalate”.

Turning to peniciline, in the assay on S aureus, the AST profile entry is given as “resistance: peniciline, clindamycine”.
